Test results taken from US20070299098A1, “Therapeutic Agent for Neuropathic Pain” (Japan Science and Technology Agency, priority 2004, published 2007).

Columns and labels:
[1] = system: hyperalgesia model induced by complete ligation of the L5/L6 spinal nerves; test: Mechanical stimulation test (Dynamic Plantar Aesthesiometer), left plantar pain threshold in hyperalgesia model; assay type: in vivo, rats; settings: for maximum pain threshold following administration (mechanical stimulation): measured 20, 40, 60 min after administration, male rats; for change of pain threshold versus saline control, in words (mechanical stimulation): intraperitoneal, effective doses, Dunnett's multiple comparison test
Procedure: (§1) Use was made of a hyperalgesia model induced by complete ligation of the L5/L6 spinal nerves in five- to seven-week-old male rats as the experimental animals.
(§2) Mechanical stimulation tests were carried out using the Ugo Basile Model 37400 Dynamic Plantar Aesthesiometer, and thermal stimulation tests were carried out using a plantar thermal stimulation tester (Plantar Test 7370, Ugo Basile). The pain thresholds of the feet on each model animal were measured, and the animals were divided into groups having uniform pain thresholds as measured prior to administration on each day of the experiment. In mechanical stimulation, animals for which the model animal foot pain threshold was 8.0 g or more were excluded from the tests. In thermal stimulation, animals for which the pain threshold for the model foot was 10 seconds or more were excluded from the tests.
(§3) The required amount of the test substance was weighed out and dissolved in physiological saline as the medium. A 2 mg/ml solution was prepared as the highest concentration mixture in the low dosage study, and a 24 mg/ml solution was prepared as the highest concentration mixture in the high dosage study. Solutions at the various concentrations were all prepared at the time of use by suitably diluting these highest concentration mixtures.
Although the object here is to ascertain the direct effect of the test substance on the spinal cord, because the substance has been confirmed to pass through the blood-brain barrier, intraperitoneal administration, which is a simple method of administration, was employed. Using the syringe barrel and needle, a volume of 5 ml/kg was administrated intraperitoneally.
Groups of five male rats (333.7 to 414.2 g) in which the hyperalgesia model had been induced were used.
Groups of five male rats (372.0 to 459.5 g) in which the hyperalgesia model had been induced were used.
Groups of five male rats (295.6 to 356.6 g) in which the hyperalgesia model had been induced were used. […]

[2] = system: hyperalgesia model induced by complete ligation of the L5/L6 spinal nerves; test: Thermal stimulation test (plantar thermal stimulation tester), left plantar pain threshold in hyperalgesia model; assay type: in vivo, rats; settings: for maximum pain threshold following administration (thermal stimulation): thermal stimulation intensity 35, measured 20, 40, 60 min after administration, male rats; for change of pain threshold versus saline control, in words (thermal stimulation): intraperitoneal, effective doses
Procedure: as §1, §2, §3
Using the syringe barrel and needle, a volume of 5 ml/kg was administrated intraperitoneally.
Groups of five male rats (356.7 to 444.0 g) in which the hyperalgesia model had been induced were used.
Groups of five male rats (400.3 to 499.9 g) in which the hyperalgesia model had been induced were used.
Groups of five male rats (324.8 to 399.0 g) in which the hyperalgesia model had been induced were used.
(§4) Groups of five male rats (307.0 to 393.1 g) in which the hyperalgesia model had been induced were used. A plantar thermal stimulation tester set to a thermal stimulation intensity of 35 was used to measure the left plantar pain threshold before naloxonazine administration, and 20 minutes, 40 minutes and 60 minutes after administration.
as §4, with “(365.3” for “(307.0”, “437.2” for “393.1”, “naltrindole” for “naloxonazine”

[3] = high dose study, 30-120 mg/kg intraperitoneal

Structure (SMILES)	maximum pain threshold following administration (mechanical stimulation) ([1]; 0.3 mg/kg intraperitoneal) [g]	maximum pain threshold following administration (mechanical stimulation) ([1]; 3 mg/kg intraperitoneal) [g]	maximum pain threshold following administration (mechanical stimulation) ([1]; 30 mg/kg intraperitoneal) [g]	change of pain threshold versus saline control, in words (mechanical stimulation) [1]	maximum pain threshold following administration (thermal stimulation) ([2]; 0.3 mg/kg intraperitoneal) [s]	maximum pain threshold following administration (thermal stimulation) ([2]; 3 mg/kg intraperitoneal) [s]	maximum pain threshold following administration (thermal stimulation) ([2]; 30 mg/kg intraperitoneal) [s]	change of pain threshold versus saline control, in words (thermal stimulation) [2]	maximum pain threshold following administration (mechanical stimulation) ([1]; 0.1 mg/kg intraperitoneal) [g]	maximum pain threshold following administration (mechanical stimulation) ([1]; 1 mg/kg intraperitoneal) [g]	maximum pain threshold following administration (mechanical stimulation) ([1]; 10 mg/kg intraperitoneal) [g]	maximum pain threshold following administration (mechanical stimulation) ([1]; 60 mg/kg intraperitoneal) [g]	maximum pain threshold following administration (mechanical stimulation) ([1]; 120 mg/kg intraperitoneal) [g]	dose at which the analgesic effect reached its peak (mechanical stimulation) [1, 3] [mg/kg]	maximum pain threshold following administration (thermal stimulation) ([2]; 0.1 mg/kg intraperitoneal) [s]	maximum pain threshold following administration (thermal stimulation) ([2]; 1 mg/kg intraperitoneal) [s]	maximum pain threshold following administration (thermal stimulation) ([2]; 120 mg/kg intraperitoneal) [s]	dose at which the analgesic effect reached its peak (thermal stimulation) [2, 3] [mg/kg]
C=CCN1CC[C@]23c4c5ccc(O)c4O[C@H]2/C(=N/N=C2\CC[C@@]4(O)[C@H]6Cc7ccc(O)c8c7[C@@]4(CCN6CC=C)[C@H]2O8)CC[C@@]3(O)[C@H]1C5 [naloxonazine]	4.9	8.6	14.5	rose significantly with the administration of 3 and 30 mg/kg	6.9	7.9	12.3	rose significantly with the administration of 30 mg/kg	–	–	–	–	–	–	–	–	–	–
C=CCN1CC[C@]23c4c5ccc(O)c4O[C@H]2C(=O)CC[C@@]3(O)[C@H]1C5 [naloxone]	–	–	10.4	rose significantly with the administration of 1 mg and 10 mg	–	–	–	rose significantly with the administration of 10 mg	5.8	7.7	9.5	10.6	10.3	60	7.2	9.2	23.8	30
O=C1CC[C@@]2(O)[C@H]3Cc4ccc(O)c5c4[C@@]2(CCN3CC2CC2)[C@H]1O5 [naltrexone]	5.1	6.7	10.1	rose significantly with the administration of 30 mg/kg	7.7	–	–	rose significantly with the administration of 3 and 30 mg/kg	–	–	–	–	–	–	–	–	–	–
Oc1ccc2c3c1O[C@H]1c4[nH]c5ccccc5c4C[C@@]4(O)[C@@H](C2)N(CC2CC2)CC[C@]314 [naltrindole]	5.8	9.4	14.1	rose significantly with the administration of 3 and 30 mg/kg	7.0	9.2	9.2	rose significantly with the administration of 3 and 30 mg/kg	–	–	–	–	–	–	–	–	–	–
